Results on 28 molecules are retold here after publication PMC9877316, “Identification of a novel P2X7 antagonist using structure-based virtual screening” (Frontiers in Pharmacology, 2023).

One assay deals with T1, rat P2X7 (Rattus norvegicus, UniProt Q64663).
T1 construct: expressed in transfected cells; host or cells: HEK-293 cells stably expressing rat P2X7-GFP (patch clamp)
T1 sequence (Q64663 1-595): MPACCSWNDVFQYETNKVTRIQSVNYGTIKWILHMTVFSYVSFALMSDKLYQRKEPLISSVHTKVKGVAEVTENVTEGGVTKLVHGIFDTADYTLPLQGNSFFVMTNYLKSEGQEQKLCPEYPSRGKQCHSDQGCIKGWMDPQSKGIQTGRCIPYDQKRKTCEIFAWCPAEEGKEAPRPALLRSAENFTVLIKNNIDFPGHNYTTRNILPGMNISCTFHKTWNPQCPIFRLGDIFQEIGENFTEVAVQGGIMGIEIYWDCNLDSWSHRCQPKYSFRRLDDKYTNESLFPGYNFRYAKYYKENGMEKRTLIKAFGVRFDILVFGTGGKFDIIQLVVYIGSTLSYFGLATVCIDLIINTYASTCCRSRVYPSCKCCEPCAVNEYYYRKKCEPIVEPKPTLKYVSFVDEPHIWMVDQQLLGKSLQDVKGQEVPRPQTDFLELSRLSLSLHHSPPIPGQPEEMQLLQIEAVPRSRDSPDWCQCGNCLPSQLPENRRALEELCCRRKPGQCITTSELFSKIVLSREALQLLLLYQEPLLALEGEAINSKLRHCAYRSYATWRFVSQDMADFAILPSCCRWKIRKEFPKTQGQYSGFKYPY
Nature of the assay: ATP/BzATP-induced YoPro-1 dye uptake assay, rat P2X7. The class given is cell-based. The settings on record: for inhibition at 30 µM: approx. % inhibition at 30 μM compound, 300 µM ATP, rat P2X7-GFP, read-out: % Inhibition at rP2X7. The method, then: (§1) 1321N1 astrocytoma cells and HEK-293 cells were cultured (at 37°C, 5% CO2) in Dulbecco’s modified Eagle’s medium (DMEM/F-12 with Glutamax) supplemented with 10% foetal bovine serum (FBS) and 200 unit/ml of penicillin and streptomycin antibiotics (Fisher Scientific). For stable cell line generation, cells were transfected using FuGene HD Transfection Reagent (Promega) according to the manufacturer’s protocol with plasmids encoding either human P2X4 with a C-terminal (His)10 tag ([Young et al., 2008]), human P2X7 with a C-terminal EYMPME tag (kindly provided by R.A. North) or rat P2X7 C-terminally tagged with a GFP-(His)8 tag, generated by PCR amplification of the coding sequence for rat P2X7 from a pcDNA-based expression vector ([Young et al., 2007]), adding XhoI and EcoRI sites at the 5′- and 3′- ends respectively, followed by restriction digestion and ligation into a zebrafish P2X4-GFP expression vector based on pEGFP-C1 (kindly provided by Eric Gouaux; [Kawate and Gouaux, 2006]) to replace the zebrafish P2X4 coding region with rP2X7. Transfected clones were grown in DMEM/F-12 with Glutamax medium supplemented with G-418 (Geneticin®, Fisher Scientific), 600 μg/ml and 150 μg/ml during selection and maintenance respectively. […] HEK-293 cells stably expressing human P2X7 ([Adinolfi et al., 2010]) were a kind gift from Elena Adinolfi.
(§2) Cells were plated as for the calcium influx assay (Section 2.4). Culture medium was replaced with low divalent cation containing extracellular solution (ECS-LD; 147 mM NaCl, 10 mM HEPES, 13 mM Glucose, .2 mM CaCl2, 2 mM KCl. pH = 7.4 in MilliQ water) and 5 μM Yopro-1. […] The baseline was measured with a BMG Clariostar instrument for 5–10 cycles, followed by addition of ATP (or BzATP) and recording for at least 30 further cycles (approx. 1 min per data point). The collected responses were normalized to the first data-point recorded after ATP addition. The initial gradient of the dye uptake curve was used to calculate the response to ATP.
In order to confirm GP-25 as a competitive (orthosteric) antagonist, BzATP concentration-response curves (ranging between 300 μM and .03 µM) were constructed for rat P2X7-GFP in the YoPro-1 uptake assay in the presence of increasing concentrations of GP-25 (Figure 3A).

The target of another assay is T2, human P2X7 (Homo sapiens, UniProt Q99572).
T2 construct: expressed in transfected cells; host or cells: 1321N1 astrocytoma cells (compounds 1-17); HEK-293 cells stably expressing human P2X7 (gift of E. Adinolfi)
T2 sequence (Q99572 1-595): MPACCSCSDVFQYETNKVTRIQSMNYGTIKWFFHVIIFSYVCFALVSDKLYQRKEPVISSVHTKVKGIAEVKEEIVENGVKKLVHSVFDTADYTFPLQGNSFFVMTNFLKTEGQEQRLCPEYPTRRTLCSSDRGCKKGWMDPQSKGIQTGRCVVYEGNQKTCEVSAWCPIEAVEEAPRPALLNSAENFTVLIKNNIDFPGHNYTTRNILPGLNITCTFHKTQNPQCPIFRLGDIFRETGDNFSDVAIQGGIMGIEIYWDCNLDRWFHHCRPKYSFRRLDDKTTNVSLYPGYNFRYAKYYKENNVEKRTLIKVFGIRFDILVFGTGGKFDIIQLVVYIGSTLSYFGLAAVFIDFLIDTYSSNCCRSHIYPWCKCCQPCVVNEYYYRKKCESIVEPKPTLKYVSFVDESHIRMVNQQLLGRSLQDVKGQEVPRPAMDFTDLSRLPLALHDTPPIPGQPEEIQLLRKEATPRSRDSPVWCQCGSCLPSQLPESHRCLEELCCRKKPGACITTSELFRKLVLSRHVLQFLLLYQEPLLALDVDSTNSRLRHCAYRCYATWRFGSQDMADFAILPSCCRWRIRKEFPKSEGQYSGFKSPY
Nature of the assay: ATP-induced YoPro-1 dye uptake assay, human P2X7. The class given is cell-based. To be noted: for reduction in ATP-induced dye uptake at human P2X7: 30 µM compound, 300 μM ATP. On the procedure:
as §1, §2
The antagonist activity of the 17 compounds (applied at 10 µM) was assayed initially on 1321N1 astrocytoma cells stably expressing human P2X4 receptors by measuring the ATP-induced (applied at 1.2 µM) increase in Fluo-4 fluorescence due to calcium influx via P2X4, using 2 µM BX430 as a positive control (Figure 1A). […] The ATP-induced rate of uptake of YoPro-1 dye was measured upon application of at 300 µM ATP, using .1 µM A740003 as a positive control (Figure 1B).
A small library of 16 commercially available compounds was selected according to the presence of the same scaffold as GP-25, (70% similarity, Tanimoto index) and/or presence of at least one functional group we hypothesized could contribute to GP-25 activity (e.g. carboxylic acid, halogen substituent to the aromatic ring, ester, etc.) (Compounds 18–33; Table 1). […] Although the number of compounds tested was limited by their availability via a commercial source, the numerous ‘hits’ allowed for a basic structure-relationship (SAR) analysis.

[1] abbreviates: P2X7, approx. % inhibition at 30 μM compound, 300 µM ATP, YoPro-1 uptake, 1321N1 (1-17) or HEK (18-33) cells, read-out: % Inhibition at hP2X7.
Where [2] appears, read: agonist concentration-response, YoPro-1 uptake.
Where [3] appears, read: P2X7, 30 µM compound, 300 µM ATP, YoPro-1, read-out: inhibition of response at human P2X7.

Where two headings read alike, the source gives them in different places.

A word on the inhibition: it is the relative decrease from the control value, in per cent. Take `CC1(C)CC(=O)C2=C(C1)NC1=C(C(=O)c3ccccc31)C2c1cccc(O)c1` (stereo not drawn) [Compound 30]: the inhibition at 30 µM was under 0% on rat P2X7 (YoPro-1 uptake) and 27% at human P2X7 (setting [1]).

Broadly, the EC50 is the midpoint of the concentration-response curve. A high value points to weaker potency. Turning to `Nc1ncnc2c1ncn2[C@@H]1O[C@H](COP(=O)(O)OP(=O)(O)OP(=O)(O)O)[C@@H](O)[C@H]1O` [ATP, reference compound], the concentration for a half-maximal effect (EC50) came out at 138 µM on rat P2X7 (setting [2]) and 184 µM at human P2X7 (setting [2]).

Consider `COc1ccc(C2C3=C(CCCC3=O)N(CC(=O)O)C3=C2C(=O)CCC3)cc1` [Compound 14], for which the results for the inhibition at 30 µM at human P2X7 (setting [3]) and on human P2X7 (setting [1]) were at most 25% and under 0%, respectively.

Take `CC1(C)CC(=O)C2=C(C1)NC1=C(C(=O)c3ccccc31)C2c1cccnc1` (stereo not drawn) [Compound 28]: the inhibition at 30 µM at rat P2X7 (YoPro-1 uptake) is under 0%; on human P2X7 (setting [1]), 32%. Moreover, at human P2X7, the “reduction in ATP-induced dye uptake at human P2X7” value (shortened to “reduction”) is reported as “statistically significant reduction”.

As for `Nc1nc(SCC(=O)NCCO)nc2sc3c(c12)CCCC3` [Compound 3], the inhibition at 30 µM on human P2X7 (setting [1]) was under 0%.

With `COC(=O)C1=C(C)NC2=C(C(=O)c3ccccc32)C1c1cc(OC)c(OC)c(OC)c1` (stereo not drawn) [Compound 31], the figures for the inhibition at 30 µM on rat P2X7 (YoPro-1 uptake) and at human P2X7 (setting [1]) were under 10% and 29%, respectively.

Consider `O=C(O)c1ccccc1NS(=O)(=O)c1ccc2c(c1)C(=O)c1ccccc1C2=O` [Compound 2], for which the inhibition at 30 µM at human P2X7 (setting [1]) is 38%.

`O=C(NNC(=S)CC(=O)c1cccs1)c1ccc(O)cc1` [Compound 17]: the inhibition at 30 µM on human P2X7 (setting [1]) is under 10%.

For the molecule `CCOC(=O)C1=C(C)NC2=C(C(=O)c3ccccc32)C1c1cc(Br)ccc1OCC` (stereo not drawn) [Compound 19], the inhibition at 30 µM on rat P2X7 (YoPro-1 uptake) was 13%; on human P2X7 (setting [1]), under 0%. For the same molecule, at human P2X7, the “reduction” value is on record as “completely abolished the activity”.

With `Cc1ccc(N2C(S)=C(C#N)C(=O)NC2c2cccs2)cc1` (stereo not drawn) [Compound 5], on human P2X7 (setting [1]), the inhibition at 30 µM is under 0%.

Consider `CC(=O)c1ccc(N/N=C(\C#N)C(=O)NCc2ccccc2)cc1` [Compound 6], for which the inhibition at 30 µM on human P2X7 (setting [1]) was under 10%.

On to `CCOC(=O)CN1C(=O)S/C(=C/c2ccc(-c3ccc(C(=O)O)c(Cl)c3)o2)C1=O` [Compound 10], for which the “% Inhibition at hP2X7” value on human P2X7 (approx. % inhibition at 30 μM compound, 300 µM ATP, YoPro-1 uptake, 1321N1 (1-17) or HEK (18-33) cells) is reported as “— (for compound displaying increased responses vs. control)”.

On to `O=C(O)COc1ccc(Cl)cc1C1C2=C(CCCC2=O)NC2=C1C(=O)CCC2` [Compound 27], for which the inhibition at 30 µM is under 0% on rat P2X7 (YoPro-1 uptake), at most 25% on human P2X7 (setting [3]) and 16% at human P2X7 (setting [1]).

Turning to `CC(=O)C1=C(C)NC(=S)NC1c1cc(Br)ccc1OCC(=O)O` (stereo not drawn) [Compound 33], the figures for the inhibition at 30 µM at rat P2X7 (YoPro-1 uptake) and on human P2X7 (setting [1]) were 16% and 18%, respectively.

For the molecule `CCSc1nnc2c(n1)OC(c1cc(Br)ccc1OCC(=O)O)Nc1ccccc1-2` (stereo not drawn) [Compound 29], the inhibition at 30 µM on rat P2X7 (YoPro-1 uptake) was under 0%; on human P2X7 (setting [1]), 20%.

On to `CC1(C)CC(=O)C2=C(C1)NC1=C(C(=O)CC(C)(C)C1)C2c1ccccc1OCC(=O)O` [Compound 18], for which the inhibition at 30 µM was under 0% on rat P2X7 (YoPro-1 uptake), at most 25% at human P2X7 (setting [3]) and under 0% on human P2X7 (setting [1]).

With `CCOC(=O)C1=C(C)N(C)C2=C(C(=O)c3ccccc32)C1c1cc(OC)c(OC)c(OC)c1` (stereo not drawn) [Compound 32], the “antagonist activity at rat P2X7” value at rat P2X7 (30 µM compound, 300 μM ATP) is “no activity”. The inhibition at 30 µM at rat P2X7 (YoPro-1 uptake) came to 19%; at human P2X7 (setting [1]) it was 55%. Moreover, the “reduction” value on human P2X7 was “statistically significant reduction”.

Consider `CC1(C)CC(=O)C2=C(C1)N(CC(=O)O)C1=C(C(=O)CC(C)(C)C1)C2c1ccc(OCc2ccccc2)cc1` [Compound 13], for which the inhibition at 30 µM at human P2X7 (setting [3]) is at most 25%; at human P2X7 (setting [1]) it was 29%.

For the molecule `O=C(O)COc1ccc(Br)cc1C1C2=C(CCCC2=O)NC2=C1C(=O)CCC2` [Compound 26], the inhibition at 30 µM at rat P2X7 (YoPro-1 uptake) is under 0%; on human P2X7 (setting [3]), at most 25%; at human P2X7 (setting [1]), 22%.

For the molecule `C=CCN1C(=O)N/C(=C/c2ccc(-c3ccc(C(=O)O)cc3C)o2)C1=O` [Compound 11], the inhibition at 30 µM at human P2X7 (setting [1]) was determined as 25%.

For the molecule `O=C(Nc1cc(S(=O)(=O)O)cc2cc(S(=O)(=O)O)cc(O)c12)c1ccccc1` [Compound 1], the inhibition at 30 µM at human P2X7 (setting [1]) turned out to be 41%.

For `CCOC(=O)C1=C(C)NC2=C(C(=O)c3ccccc32)C1c1cc(Br)c(OCc2ccc(F)cc2)c(OC)c1` (stereo not drawn) [Compound 24], the values for the inhibition at 30 µM on rat P2X7 (YoPro-1 uptake) and on human P2X7 (setting [1]) were 16% and 12%, respectively.

With `O=C(O)CSc1nc(SCC(=O)O)c2c3c(sc2n1)CCCC3` [Compound 16], at human P2X7 (setting [1]), the inhibition at 30 µM is under 10%.

Regarding `O=C(O)CCCC(=O)Nc1ccc(CN2CCOCC2)cc1` [Compound 15], the inhibition at 30 µM on human P2X7 (setting [1]) was 11%.

Take `O=C1NC(=O)C(CCc2ccncc2)(c2ccccc2)C(=O)N1` [Compound 8]: the inhibition at 30 µM on human P2X7 (setting [1]) is under 0%.

On to `NC(=O)CN1C(=O)C(O)(CC(=O)c2cccc(N)c2)c2ccccc21` (stereo not drawn) [Compound 12], for which, at human P2X7 (setting [1]), the inhibition at 30 µM came out at 12%.

`COC(=O)C1=C(C)NC2=C(C(=O)c3ccccc32)C1c1ccc(-c2ccccc2[N+](=O)[O-])o1` (stereo not drawn) [Compound 23]: the inhibition at 30 µM was under 0% at rat P2X7 (YoPro-1 uptake) and 30% on human P2X7 (setting [1]). Also, at human P2X7, the “reduction” value was “statistically significant reduction”.

As to `Cc1ccc(C(=O)C2=C(O)C(=O)N(CC3CCCO3)C2c2cccc(Oc3ccccc3)c2)o1` (stereo not drawn) [Compound 4], at human P2X7 (setting [1]), the inhibition at 30 µM was under 10%.
